From ChEMBL document CHEMBL5143544, “Chemoenzymatic synthesis, computational investigation, and antitumor activity of monocyclic lankacidin derivatives” (Bioorg Med Chem, 2022)

Key:
HeLa = assay: Cytotoxicity against human HeLa cells assessed as reduction in cell viability after 72 hrs by MTT assay; format: functional, cell-based
A549 = assay: Cytotoxicity against human A549 cells assessed as reduction in cell viability after 72 hrs by MTT assay; format: functional, cell-based; settings: A549, 72 h
MCF7 = assay: cells; settings: Homo sapiens, MCF7, 72 h
Description: Cytotoxicity against human MCF7 cells assessed as reduction in cell viability after 72 hrs by MTT assay

Micrococcus luteus = assay: Antimicrobial activity against Micrococcus lutes assessed as reduction in microbial growth incubated for 24 hrs by agar dilution method; format: functional

Work on `O=c1[nH]cc(F)c(=O)[nH]1` [FLUOROURACIL] yielded an IC50 (HeLa) of 32.1 µM, an IC50 (A549) of 6.6 µM and an IC50 (MCF7) of 22.8 µM.
`CC1=C\C[C@H](O)/C=C/C(C)=C/[C@@H](NC(=O)[C@H](C)O)[C@]2(C)C(=O)O[C@H](C[C@H](O)\C=C\1)[C@@H](C)C2=O` showed an IC50 (HeLa) of 24.8 µM, an IC50 (A549) greater than 100 µM and an IC50 (MCF7) of 75.7 µM.
For `CC1=C\C[C@H](O)/C=C/C(C)=C/[C@@H](NC(=O)[C@H](C)O)[C@@H](C)C(=O)/C(C)=C/C[C@H](O)\C=C\1`, the IC50 (HeLa) was 45.4 µM, the IC50 (A549) was greater than 100 µM and the IC50 (MCF7) was 42.8 µM.
Work on `CC(=O)O[C@H]1C(=O)[C@@]2(C)[C@H]([C@H](OC(=O)c3ccccc3)[C@]3(O)C[C@H](OC(=O)[C@H](O)[C@@H](NC(=O)c4ccccc4)c4ccccc4)C(C)=C1C3(C)C)[C@]1(OC(C)=O)CO[C@@H]1C[C@@H]2O` [PACLITAXEL] yielded an IC50 (HeLa) of less than 0.00625 µM, an IC50 (A549) of 0.0295 µM and an IC50 (MCF7) greater than 0.0811 µM.
Compound `CC(=O)C(=O)N[C@@H]1/C=C(C)/C=C\[C@@H](O)C/C=C(C)/C=C/[C@@H](O)C[C@H]2OC(=O)[C@]1(C)C(=O)[C@@H]2C` has an MIC (Micrococcus luteus) of 6.2 µM, an IC50 (HeLa) of 23.3 µM and an IC50 (A549) greater than 100 µM. The IC50 (MCF7) was greater than 100 µM.
For `CC(=O)O[C@@H]1/C=C/C(C)=C/C[C@H](O)/C=C/C(C)=C/[C@@H](NC(=O)[C@H](C)O)[C@]2(C)C(=O)O[C@H](C1)[C@@H](C)C2=O`, the IC50 (HeLa) was 48.2 µM, the IC50 (A549) was greater than 100 µM and the IC50 (MCF7) was 47.1 µM.
`CC(=O)C(=O)N[C@@H]1/C=C(C)/C=C/[C@@H](O)C/C=C(C)/C=C/[C@@H](O)C/C=C(\C)C(=O)[C@@H]1C` was tested, and the IC50 (HeLa) was greater than 100 µM, the IC50 (A549) was greater than 100 µM and the IC50 (MCF7) was greater than 100 µM.
In the case of `CC(=O)C(=O)N[C@@H]1/C=C(C)/C=C/[C@@H](O)C/C=C(C)/C=C/[C@@H](O)C/C=C(\C)C(=O)[C@H]1C`, the IC50 (HeLa) is reported as 72.9 µM, the IC50 (A549) is reported as greater than 100 µM and the IC50 (MCF7) is reported as greater than 100 µM.
For `CC1=C\C[C@H](O)/C=C/C(C)=C/[C@@H](NC(=O)[C@H](C)O)[C@H](C)C(=O)/C(C)=C/C[C@H](O)\C=C\1`, the IC50 (HeLa) was 13.3 µM, the IC50 (A549) was greater than 100 µM and the IC50 (MCF7) was greater than 100 µM.
